Assay [1] relates to spring wheat. Kind of assay: Field trial: grain yield effects on spring wheat, seed treatment with isoxadifen-ethyl. Type of assay: in vivo. The following applies: 158 days after application. The text has this: (§1) The trials have been carried out under natural field conditions (plot trials, 10 square meter plots, 2-4 replications).
(§2) The applications have been done with seed treatment, pre- or post-emergence treatments straight (alone, 1 application) or sequential treatments e.g. seed treatment followed by pre-emergence and/or post-emergence spray applications. The pre- or post-emergence applications were made with spray applications using 100-300 l/water per hectare. The growth stage of the crops species at the time of application are reported in the result tables. The dose rates of the herbicidal active ingredients applied alone respective in sequential application are also described in the result tables.
(§3) The assessments have been done via visual ratings (0-100% scale) or counting. The trials have been harvested after crops reached the full maturity. After the harvest the total weight of kernels/seeds/beets per plot was measured. The results are reported as means over 2-4 replications. The time between applications and assessments or countings/harvest are described in the result tables as well.
(§4) The active ingredients have been applied to the untreated, dry seeds together with a carrier. After a short period of time to let the seeds dry, they were ready to be sown in the pot or field using standard equipments.

For the next assay, the system named is corn. Kind of assay: Field trial: grain yield effect on corn, sequential treatment with isoxadifen-ethyl. Type of assay: in vivo.
From the text: as §1, §2, §3, §4

The test system of assay [2] is spring wheat. In words: Field trial: grain yield effects on spring wheat, postemergence treatment with isoxadifen-ethyl. Particulars: 74 days after application. The assay is classed as in vivo.
From the text: as §1, §2, §3

The subject of assay [3] is sugarbeets. In words: Field trial: sugar yield of sugarbeets, sequential application. The assay is classed as in vivo, sugarbeet.
From the text: as §1, §2, §3, §4

The test system of a further assay is sugarbeet. In words: Field trial: yield effects on sugarbeet, sequential application of isoxadifen-ethyl. The assay is classed as in vivo.
From the text: as §1, §2, §3, §4

The subject of the next assay is winter wheat. Kind of assay: Field trial: grain yield effects on winter wheat, postemergence treatment with isoxadifen-ethyl. The assay is classed as in vivo. The following applies: 84 days after application.
From the text: as §1, §2, §3

Assay [4] concerns spring oilseed rape (canola). Kind of assay: Field trial: grain yield effects on spring oilseed rape (canola), postemergence treatment with IDF-Et + TBC. The assay is classed as in vivo. The following applies: 92 days after application. The text has this: The trials have been carried out under natural field conditions (plot trials, 10 square meter plots, 2-4 replications). The applications have been done with seed treatment, pre- or post-emergence treatments straight (alone, 1 application) or sequential treatments e.g. seed treatment followed by pre-emergence and/or post-emergence spray applications. The pre- or post-emergence applications were made with spray applications using 100-300 l/water per hectare. The growth stage of the crops species at the time of application are reported in the result tables. The dose rates of the herbicidal active ingredients applied alone respective in sequential application are also described in the result tables. The assessments have been done via visual ratings (0-100% scale) or counting. The trials have been harvested after crops reached the full maturity. After the harvest the total weight of kernels/seeds/beets per plot was measured. The results are reported as means over 2-4 replications. The time between applications and assessments or countings/harvest are described in the result tables as well.

The subject of assay [5] is sugarbeets. Kind of assay: Field trial: emergence of sugarbeets, seed treatment with isoxadifen. Type of assay: in vivo, sugarbeet. Particulars: seed treatment 0.015 mg ai/seed.
From the text: as §1, §2, §3, §4

A further assay relates to winter oilseed rape. In words: Field trial: grain yield effects on winter oilseed rape, sequential application of isoxadifen. Type of assay: in vivo.
From the text: as §1, §2, §3, §4

[6] abbreviates: grain yield relative to UTC (100%), 100 g ai/ha post-emergence.
[7] abbreviates: grain yield, 100 g ai/ha post-emergence.

The results in this text go back to US20140378306A1, “USE OF 5-PHENYL- OR 5-BENZYL-2 ISOXAZOLINE-3 CARBOXYLATES FOR IMPROVING PLANT YIELD” (Bayer Intellectual Property GmbH, priority 2011, published 2014).

For `CCOC(=O)C1=NOC(c2ccccc2)(c2ccccc2)C1` [IDF-Et, ethyl 5,5-diphenyl-2-isoxazolinecarboxylate], the Relative % in the assay with spring wheat [1] (grain yield relative to UTC (100%), seed treatment 0.5 g ai/kg seed) is on record as 108.7%; in the assay with spring wheat [2] (setting [6]) it was 113.2%; in the assay with winter wheat (setting [6]), 109.0%. The “Difference(%) vs. UTC” value was “+8.7%” with spring wheat [1] (grain yield, seed treatment 0.5 g ai/kg seed); “+24%” in the assay with corn (grain yield, 0.5 g ai/kg seed fb 3 × 50 g ai/ha post); “+13.2%” in the assay with spring wheat [2] (setting [7]); “+8.6%” in the assay with sugarbeets [3] (sugar yield, 0.015 mg ai/seed fb 3 × 50 g ai/ha post); “+11.2%” in the assay on sugarbeet (beet yield, 0.015 mg ai/seed fb 3 × 50 g ai/ha post); “+9%” in the assay with winter wheat (setting [7]). Further, the Yield in the assay on spring wheat [1] (seed treatment 0.5 g ai/kg seed (prior planting), grain yield at harvest) was determined as 6.58 t/ha; with corn (0.5 g ai/kg seed fb 3 × 50 g ai/ha post (2-4, 6-8, 10-12 leaves), grain yield at harvest, 72 days after application) it was 10.80 t/ha; with spring wheat [2] (100 g ai/ha post-emergence spring, flag leaf/beginning of ear heading, grain yield at harvest), 7.67 t/ha; with sugarbeet (0.015 mg ai/seed fb 3 × 50 g ai/ha post (2-4, 6-8, 10-12 leaves), yield of beets by weight at harvest, 162 days after application) it was 65.3 t/ha; with winter wheat (100 g ai/ha post-emergence spring, beginning of stem elongation, grain yield at harvest) it was 8.09 t/ha. Further, the Relative in the assay with corn (grain yield relative to UTC (100%), 0.5 g ai/kg seed fb 3 × 50 g ai/ha post) was found to be 124%; in the assay on sugarbeets [3] (sugar yield relative to UTC (100%), 0.015 mg ai/seed fb 3 × 50 g ai/ha post), 108.6%; in the assay on sugarbeet (beet yield relative to UTC (100%), 0.015 mg ai/seed fb 3 × 50 g ai/ha post) it was 111.2%. Also, in the assay on sugarbeets [3] (0.015 mg ai/seed fb 3 × 50 g ai/ha post (2-4, 6-8, 10-12 leaves), sugar yield by weight at harvest, 162 days after application), the “Sugar Yield” value was 6.19 t/ha.

On to `CC(C)(C)C(O)(CCc1ccc(Cl)cc1)Cn1cncn1` (stereo not drawn) [TBC, tebuconazole], for which, in assay [4] (grain yield relative to UTC (100%), canola, TBC 150, IDF-Et 100 g ai/ha), the Relative % is on record as 101.8%. Further, the “Difference(%) vs. UTC” value in assay [4] (grain yield, canola, TBC 150, IDF-Et 100 g ai/ha) is “+1.8%”. The Yield in assay [4] (spring oilseed rape (canola), TBC 150 g ai/ha, IDF-Et 100 g ai/ha, post-emergence spring, beginning of flowering, grain yield at harvest) worked out at 3.98 t/ha.

Turning to `O=C(O)C1=NOC(c2ccccc2)(c2ccccc2)C1` [IDF, 5,5-diphenyl-2-isoxazolinecarboxylic acid], the plants/18 row meters with sugarbeets [5] (emergence of sugarbeets, counting 28 days after planting) worked out at 74 plants/18 row meters. The Relative in the assay on sugarbeets [5] (emergence relative to UTC (100%), sugarbeets, 28 days after planting) worked out at 113.8%; with winter oilseed rape (grain yield relative to UTC (100%), 3 g ai/kg seed fb 3 × 50 g ai/ha post), 105%. For the same compound, the “Difference(%) vs. UTC” value in the assay on sugarbeets [5] (emergence, sugarbeets, 28 days after planting) is on record as “+13.8%”; in the assay with winter oilseed rape (grain yield, 3 g ai/kg seed fb 3 × 50 g ai/ha post), “+5%”. In addition, the Yield with winter oilseed rape (3 g ai/kg seed fb 3 × 50 g ai/ha post (4-6 leaves, stem elongation, beginning of flowering), grain yield at harvest, 102 days after application) worked out at 2.63 t/ha.
